In PubChem BioAssay AID248 (DTP/NCI, 2004):
“And” between values parts separate entries of the source, which are not always exact repeats. Equal values may be shown once. Inconclusive results and toxic doses are left out. Cut-off read from the data, not from the text of the source: active = T/C of 150% or more; inactive = T/C below 125%.

Test system: L1210 leukemia ip in BDF1 mice, survival T/C
Assay: NCI In Vivo Anticancer Drug Screen. Data for tumor model L1210 Leukemia (intraperitoneal) in B6D2F1 (BDF1) mice
Details: higher = longer survival
In short: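 Mice bearing the transplanted tumor received compound or vehicle. Survival of the treated group was divided by that of the vehicle-treated control group to give the ratio.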

Measured: T/C

COc1cc2cc3c4cc(OC)c(OC)cc4cc[n+]3c(C)c2cc1OC (tested in a mixture with another compound)
inactive: endpoint: mean survival time, dose: 5.0 mg/kg/injection, schedule: Q01DX009 (ip), vehicle: saline 105 % of control and 113 % of control | endpoint: mean survival time, dose: 8.0 mg/kg/injection, schedule: Q01DX009 (ip), vehicle: Klucel (hydroxypropylcellulose) (HPC) 114 % of control | endpoint: mean survival time, dose: 10.0 mg/kg/injection, schedule: Q01DX009 (ip), vehicle: saline 105 % of control | endpoint: mean survival time, dose: 16.0 mg/kg/injection, schedule: Q01DX009 (ip), vehicle: clinical formulation 116 % of control | endpoint: mean survival time, dose: 16.0 mg/kg/injection, schedule: Q03HX024 (ip), vehicle: saline 107 % of control | endpoint: mean survival time, dose: 40.0 mg/kg/injection, schedule: Q01DX009 (ip), vehicle: saline 116 % of control | endpoint: mean survival time, dose: 64.0 mg/kg/injection, schedule: Q03HX024 (ip), vehicle: saline 113 % of control | endpoint: mean survival time, dose: 80.0 mg/kg/injection, schedule: Q01DX009 (ip), vehicle: saline 117 % of control | endpoint: mean survival time, dose: 100.0 mg/kg/injection, schedule: Q04DX003 (ip), vehicle: saline with Tween-80 116 % of control | endpoint: mean survival time, dose: 128.0 mg/kg/injection, schedule: Q08DX002 (ip), vehicle: saline 112 % of control | endpoint: mean survival time, dose: 150.0 mg/kg/injection, schedule: Q04DX003 (ip), vehicle: saline with Tween-80 117 % of control | endpoint: mean survival time, dose: 200.0 mg/kg/injection, schedule: Q04DX002 (ip), vehicle: saline 105 % of control | endpoint: mean survival time, dose: 256.0 mg/kg/injection, schedule: Q04DX003 (ip), vehicle: saline 118 % of control | endpoint: median survival time, dose: 8.0 mg/kg/injection, schedule: Q01DX009 (ip), vehicle: Klucel (hydroxypropylcellulose) (HPC) 108 % of control | endpoint: median survival time, dose: 8.0 mg/kg/injection, schedule: Q01DX009 (ip), vehicle: clinical formulation 110 % of control | endpoint: median survival time, dose: 8.0 mg/kg/injection, schedule: Q01DX009 (ip), vehicle: other 117 % of control | endpoint: median survival time, dose: 8.0 mg/kg/injection, schedule: Q01DX009 (ip), vehicle: water 111 % of control | endpoint: median survival time, dose: 8.0 mg/kg/injection, schedule: Q01DX009 (oral), vehicle: other 99 % of control and 113 % of control | endpoint: median survival time, dose: 8.0 mg/kg/injection, schedule: Q01DX009 (sc), vehicle: other 104 % of control | endpoint: median survival time, dose: 16.0 mg/kg/injection, schedule: Q01DX009 (ip), vehicle: Klucel (hydroxypropylcellulose) (HPC) 104 % of control | endpoint: median survival time, dose: 16.0 mg/kg/injection, schedule: Q01DX009 (ip), vehicle: clinical formulation 114 % of control | endpoint: median survival time, dose: 16.0 mg/kg/injection, schedule: Q01DX009 (oral), vehicle: other 98 % of control and 105 % of control | endpoint: median survival time, dose: 16.0 mg/kg/injection, schedule: Q01DX009 (oral), vehicle: saline 100 % of control | endpoint: median survival time, dose: 16.0 mg/kg/injection, schedule: Q01DX009 (sc), vehicle: other 104 % of control | endpoint: median survival time, dose: 25.0 mg/kg/injection, schedule: Q01DX009 (ip), vehicle: Klucel (hydroxypropylcellulose) (HPC) 98 % of control and 99 % of control | endpoint: median survival time, dose: 25.0 mg/kg/injection, schedule: Q01DX009 (ip), vehicle: other 98 % of control and 99 % of control | endpoint: median survival time, dose: 25.0 mg/kg/injection, schedule: Q01DX009 (ip), vehicle: saline 99 % of control and 100 % of control | endpoint: median survival time, dose: 32.0 mg/kg/injection, schedule: Q01DX001 (oral), vehicle: saline 95 % of control and 100 % of control | endpoint: median survival time, dose: 32.0 mg/kg/injection, schedule: Q01DX001 (sc), vehicle: saline 95 % of control | endpoint: median survival time, dose: 32.0 mg/kg/injection, schedule: Q01DX009 (oral), vehicle: other 115 % of control and 116 % of control | endpoint: median survival time, dose: 32.0 mg/kg/injection, schedule: Q01DX009 (oral), vehicle: saline 100 % of control | endpoint: median survival time, dose: 32.0 mg/kg/injection, schedule: Q01DX009 (sc), vehicle: other 100 % of control | endpoint: median survival time, dose: 32.0 mg/kg/injection, schedule: Q01DX009 (sc), vehicle: saline 95 % of control | endpoint: median survival time, dose: 50.0 mg/kg/injection, schedule: Q01DX009 (ip), vehicle: Klucel (hydroxypropylcellulose) (HPC) 100 % of control and 101 % of control | endpoint: median survival time, dose: 50.0 mg/kg/injection, schedule: Q01DX009 (ip), vehicle: other 95 % of control and 96 % of control | endpoint: median survival time, dose: 50.0 mg/kg/injection, schedule: Q01DX009 (ip), vehicle: saline 100 % of control and 101 % of control | endpoint: median survival time, dose: 64.0 mg/kg/injection, schedule: Q01DX001 (ip), vehicle: other 118 % of control | endpoint: median survival time, dose: 64.0 mg/kg/injection, schedule: Q01DX001 (oral), vehicle: other 100 % of control and 101 % of control | endpoint: median survival time, dose: 64.0 mg/kg/injection, schedule: Q01DX001 (oral), vehicle: saline 100 % of control | endpoint: median survival time, dose: 64.0 mg/kg/injection, schedule: Q01DX001 (sc), vehicle: other 114 % of control | endpoint: median survival time, dose: 64.0 mg/kg/injection, schedule: Q01DX009 (oral), vehicle: other 106 % of control and 114 % of control | endpoint: median survival time, dose: 64.0 mg/kg/injection, schedule: Q01DX009 (oral), vehicle: saline 100 % of control | endpoint: median survival time, dose: 64.0 mg/kg/injection, schedule: Q01DX009 (sc), vehicle: other 101 % of control | endpoint: median survival time, dose: 64.0 mg/kg/injection, schedule: Q01DX009 (sc), vehicle: saline 100 % of control | endpoint: median survival time, dose: 64.0 mg/kg/injection, schedule: Q04DX003 (sc), vehicle: saline 100 % of control | endpoint: median survival time, dose: 100.0 mg/kg/injection, schedule: Q01DX009 (ip), vehicle: Klucel (hydroxypropylcellulose) (HPC) 96 % of control and 97 % of control | endpoint: median survival time, dose: 100.0 mg/kg/injection, schedule: Q01DX009 (ip), vehicle: saline 105 % of control and 108 % of control | endpoint: median survival time, dose: 128.0 mg/kg/injection, schedule: Q01DX001 (oral), vehicle: other 100 % of control and 104 % of control | endpoint: median survival time, dose: 128.0 mg/kg/injection, schedule: Q01DX001 (oral), vehicle: saline 100 % of control | endpoint: median survival time, dose: 128.0 mg/kg/injection, schedule: Q01DX001 (sc), vehicle: other 100 % of control | endpoint: median survival time, dose: 128.0 mg/kg/injection, schedule: Q01DX001 (sc), vehicle: saline 100 % of control | endpoint: median survival time, dose: 128.0 mg/kg/injection, schedule: Q01DX009 (ip), vehicle: water 98 % of control | endpoint: median survival time, dose: 128.0 mg/kg/injection, schedule: Q01DX009 (oral), vehicle: other 98 % of control and 110 % of control | endpoint: median survival time, dose: 128.0 mg/kg/injection, schedule: Q01DX009 (oral), vehicle: saline 100 % of control | endpoint: median survival time, dose: 128.0 mg/kg/injection, schedule: Q01DX009 (sc), vehicle: other 100 % of control | endpoint: median survival time, dose: 128.0 mg/kg/injection, schedule: Q01DX009 (sc), vehicle: saline 105 % of control | endpoint: median survival time, dose: 200.0 mg/kg/injection, schedule: Q01DX009 (ip), vehicle: Klucel (hydroxypropylcellulose) (HPC) 95 % of control and 96 % of control | endpoint: median survival time, dose: 200.0 mg/kg/injection, schedule: Q01DX009 (ip), vehicle: other 117 % of control | endpoint: median survival time, dose: 200.0 mg/kg/injection, schedule: Q01DX009 (ip), vehicle: saline 95 % of control and 98 % of control | endpoint: median survival time, dose: 256.0 mg/kg/injection, schedule: Q01DX001 (oral), vehicle: other 99 % of control and 100 % of control | endpoint: median survival time, dose: 256.0 mg/kg/injection, schedule: Q01DX001 (oral), vehicle: saline 100 % of control | endpoint: median survival time, dose: 256.0 mg/kg/injection, schedule: Q01DX001 (sc), vehicle: other 100 % of control | endpoint: median survival time, dose: 256.0 mg/kg/injection, schedule: Q01DX009 (oral), vehicle: other 100 % of control and 110 % of control | endpoint: median survival time, dose: 256.0 mg/kg/injection, schedule: Q01DX009 (oral), vehicle: saline 110 % of control | endpoint: median survival time, dose: 256.0 mg/kg/injection, schedule: Q01DX009 (sc), vehicle: other 99 % of control | endpoint: median survival time, dose: 256.0 mg/kg/injection, schedule: Q01DX009 (sc), vehicle: saline 110 % of control | endpoint: median survival time, dose: 256.0 mg/kg/injection, schedule: Q04DX003 (sc), vehicle: saline 100 % of control | endpoint: median survival time, dose: 400.0 mg/kg/injection, schedule: Q01DX009 (ip), vehicle: Klucel (hydroxypropylcellulose) (HPC) 96 % of control and 97 % of control | endpoint: median survival time, dose: 512.0 mg/kg/injection, schedule: Q01DX001 (oral), vehicle: other 98 % of control and 101 % of control | endpoint: median survival time, dose: 512.0 mg/kg/injection, schedule: Q01DX001 (oral), vehicle: saline 100 % of control | endpoint: median survival time, dose: 512.0 mg/kg/injection, schedule: Q01DX001 (sc), vehicle: other 99 % of control | endpoint: median survival time, dose: 512.0 mg/kg/injection, schedule: Q01DX001 (sc), vehicle: saline 100 % of control | endpoint: median survival time, dose: 512.0 mg/kg/injection, schedule: Q08DX002 (ip), vehicle: other 99 % of control | endpoint: median survival time, dose: 1024.0 mg/kg/injection, schedule: Q01DX001 (oral), vehicle: other 98 % of control and 100 % of control
